Experimental data taken from patent US8835462B2, “Macrocyclic picolinamides as fungicides” (Dow AgroSciences LLC, priority 2012, dated 2014).
Read-outs that look alike come from different tables or passages of the source.

Experiments:
Assay type in all cases: in vivo
Puccinia triticina = assay: Wheat brown rust (PUCCRT) fungicidal activity on wheat seedlings
How it was run: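 Compounds in acetone diluted with nine volumes water containing 110 ppm Triton X-100, sprayed to run-off on first-leaf Yuma wheat seedlings inoculated with P. triticina spores before or after treatment. Dark dew room 22° C, 100% RH overnight, then greenhouse 24° C; percent disease control from severity (0-100%) relative to untreated plants.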

Uncinula necator = assay: Grape powdery mildew (UNCINE) fungicidal activity; settings: Erysiphe necator, 24 h, 1 Day Protectant, read-out: Disease Control UNCINE 1DP
Description: Technical grades of materials were dissolved in acetone, which were then mixed with nine volumes of water containing 110 ppm Triton X-100. The fungicide solutions were applied onto wheat seedlings using an automated booth sprayer to run-off. All sprayed plants were allowed to air dry prior to further handling. Wheat plants (variety Yuma) were grown from seed in a greenhouse in 50% mineral soil/50% soil-less Metro mix until the first leaf was fully emerged, with 7-10 seedlings per pot. These plants were inoculated with an aqueous spore suspension of Septoria tritici either prior to or after fungicide treatments. After inoculation the plants were kept in 100% relative humidity (one day in a dark dew chamber followed by two to three days in a lighted dew chamber at 20° C.) to permit spores to germinate and infect the leaf. The plants were then transferred to a greenhouse set at 20° C. for disease to develop. When disease symptoms were fully expressed on the 1st leaves of untreated plants, infection levels were assessed on a scale of 0 to 100 percent disease severity. Percent disease control was calculated using the ratio of disease severity on treated plants relative to untreated plants. Evaluation of Fungicidal Activity: Grape Powdery Mildew (Uncinula Necator; Bayer Code […]) Grape seedlings (variety Carignane) were grown in soil-less Metro mix, with one plant per pot, and used in the test when approximately one month old. Plants were inoculated 24 hr after fungicide treatment by shaking spores from infected leaves over test plants. Plants were maintained in a greenhouse set at 20° C. until disease was fully developed. Fungicide formulation, application and disease assessment on the sprayed leaves followed the procedures as described in the Example A.

Cercospora beticola = assay: Leaf spot of sugar beets (CERCBE) fungicidal activity; settings: 24 h, 1 Day Protectant, sugar beet, read-out: Disease Control CERCBE 1DP
Description: Technical grades of materials were dissolved in acetone, which were then mixed with nine volumes of water containing 110 ppm Triton X-100. The fungicide solutions were applied onto wheat seedlings using an automated booth sprayer to run-off. All sprayed plants were allowed to air dry prior to further handling. Wheat plants (variety Yuma) were grown from seed in a greenhouse in 50% mineral soil/50% soil-less Metro mix until the first leaf was fully emerged, with 7-10 seedlings per pot. These plants were inoculated with an aqueous spore suspension of Septoria tritici either prior to or after fungicide treatments. After inoculation the plants were kept in 100% relative humidity (one day in a dark dew chamber followed by two to three days in a lighted dew chamber at 20° C.) to permit spores to germinate and infect the leaf. The plants were then transferred to a greenhouse set at 20° C. for disease to develop. When disease symptoms were fully expressed on the 1st leaves of untreated plants, infection levels were assessed on a scale of 0 to 100 percent disease severity. Percent disease control was calculated using the ratio of disease severity on treated plants relative to untreated plants. Evaluation of Fungicidal Activity: Leaf Spot of Sugar Beets (Cercospora Beticola; Bayer Code CERCBE) Sugar beet plants (variety HH88) were grown in soil-less Metro mix and trimmed regularly to maintain an uniform plant size prior to test. Plants were inoculated with a spore suspension 24 hr after fungicide treatments. Inoculated plants were kept in a dew chamber at 22° C. for 48 hr then incubated in a greenhouse set at 24° C. under a clear plastic hood with bottom ventilation until disease symptoms were fully expressed. Fungicide formulation, application and disease assessment on the sprayed leaves followed the procedures as described in the Example A.

[1] = system: Glomerella lagenarium; Anamorph: Colletotricum lagenarium; assay: Cucumber anthracnose (COLLLA) fungicidal activity; settings: Colletotrichum orbiculare, 24 h, 1 Day Protectant, read-out: Disease Control COLLLA 1DP
Description: Technical grades of materials were dissolved in acetone, which were then mixed with nine volumes of water containing 110 ppm Triton X-100. The fungicide solutions were applied onto wheat seedlings using an automated booth sprayer to run-off. All sprayed plants were allowed to air dry prior to further handling. Wheat plants (variety Yuma) were grown from seed in a greenhouse in 50% mineral soil/50% soil-less Metro mix until the first leaf was fully emerged, with 7-10 seedlings per pot. These plants were inoculated with an aqueous spore suspension of Septoria tritici either prior to or after fungicide treatments. After inoculation the plants were kept in 100% relative humidity (one day in a dark dew chamber followed by two to three days in a lighted dew chamber at 20° C.) to permit spores to germinate and infect the leaf. The plants were then transferred to a greenhouse set at 20° C. for disease to develop. When disease symptoms were fully expressed on the 1st leaves of untreated plants, infection levels were assessed on a scale of 0 to 100 percent disease severity. Percent disease control was calculated using the ratio of disease severity on treated plants relative to untreated plants. Evaluation of Fungicidal Activity: Cucumber Anthracnose (Glomerella Lagenarium; Anamorph: Colletotricum Lagenarium; Bayer Code COLLLA) Cucumber seedlings (variety Bush Pickle) were propagated in soil-less Metro mix, with each pot having one plant, and used in the test when 12 to 14 days old. Test plants were inoculated with an aqueous spore suspension of Colletotricum lagenarium 24 hr after fungicide treatments. After inoculation the plants were kept in a dew room at 22° C. with 100% relative humidity for 48 hr to permit spores to germinate and infect the leaf. The plants were then transferred to a growth room set at 22° C. for disease to develop. Fungicide formulation, application and disease assessment on the sprayed leaves followed the procedures as described in the Example A.

[2] = 24 h, 1 Day Protectant, read-out: Disease Control PUCCRT 1 DP
[3] = 72 h, 3 Day Curative, read-out: Disease Control PUCCRT 3 DC

| Compound | pest or weed control at 100 ppm (Puccinia triticina; [2]) | pest or weed control at 100 ppm (Puccinia triticina; [3]) | pest or weed control at 100 ppm (Uncinula necator) | pest or weed control at 100 ppm (Cercospora beticola) | pest or weed control at 100 ppm [1] |
| --- | --- | --- | --- | --- | --- |
| COC(=O)/C=C/O[C@@H]1[C@@H](Cc2ccccc2)COC[C@H](NC(=O)c2nccc(OC)c2OCOC(C)=O)C(=O)O[C@H]1C [Compound 36] | 80 to 100% | 80 to 100% | 0 to 80% | 0 to 80% | 80 to 100% |
| COc1ccnc(C(=O)N[C@H]2COC[C@H](Cc3ccccc3)[C@@H](OC(=O)c3ccccc3)[C@H](C)OC2=O)c1OCOC(C)=O [Compound 37] | 80 to 100% | 80 to 100% | 0 to 80% | 80 to 100% | 80 to 100% |
| COc1ccnc(C(=O)N[C@H]2COC[C@H](Cc3ccccc3)[C@@H](OC(=O)C3CC3)[C@H](C)OC2=O)c1OCOC(C)=O [Compound 38] | 80 to 100% | 80 to 100% | 0 to 80% | 80 to 100% | 80 to 100% |
| COc1ccnc(C(=O)N[C@H]2COC[C@H](Cc3ccccc3)[C@@H](OC)[C@H](C)OC2=O)c1OCOC(C)=O [Compound 39] | 80 to 100% | 80 to 100% | 0 to 80% | 0 to 80% | 80 to 100% |
| COc1ccnc(C(=O)N[C@H]2COC[C@H](Cc3ccccc3)[C@@H](Oc3ccccc3)[C@H](C)OC2=O)c1OCOC(C)=O [Compound 40] | 80 to 100% | 80 to 100% | 0 to 80% | 80 to 100% | 80 to 100% |
| COc1ccnc(C(=O)N[C@H]2COC[C@H](Cc3ccccc3)[C@@H](OC3CCCC3)[C@H](C)OC2=O)c1OC(C)=O [Compound 107] | 80 to 100% | 80 to 100% | 0 to 80% | 80 to 100% | 80 to 100% |
| COc1ccnc(C(=O)N[C@H]2COC[C@H](Cc3ccccc3)[C@@H](OC3CCCC3)[C@H](C)OC2=O)c1OCOC(=O)C(C)C [Compound 108] | 80 to 100% | 80 to 100% | 80 to 100% | 80 to 100% | 80 to 100% |
